The text below walks through data of publication PMC9569971, “New Oxazolo[5,4-d]pyrimidines as Potential Anticancer Agents: Their Design, Synthesis, and In Vitro Biological Activity Research” (International Journal of Molecular Sciences, 2022).

Data set [1] in a line: MTT viability assay, NHDF. The format is cell-based, human. To be noted: human, normal human dermal fibroblasts (NHDF), tested 1–500 µM. As for the experimental part:
(§1) When the confluence was greater than 70%, adherent cell lines were detached from the bottle surface with a TrypLE solution and then used in assays or reduced. The cells were collected into centrifuge tubes and centrifuged at 1000× g for 5 min at room temperature. The supernatant was removed to dry. The cell pellets were then resuspended in an appropriate medium. The cells were counted using a Bürker chamber and resuspended in 96-well plates to a cell density of 10,000 cells per well for MTT assay. For the rhodamine accumulation test and the detection of apoptosis assay, cells were seeded at a density of 30,000 per well. In the migration assay, cells were seeded at a density of 20,000 per well, and monolayer formation was awaited.
(§2) In this study, normal human dermal fibroblasts (NHDFs), breast cancer cells (MCF7), human lung adenocarcinoma cells (A549), murine fibroblasts (L929), colon adenocarcinoma cells (HT29), and colorectal adenocarcinoma cells (LoVo) were used. All cell lines were cultured in the recommended media. […] The human lung adenocarcinoma cell line A549 and breast cancer cell line MCF-7 were obtained from the ECACC. These cell lines were cultured in Eagle’s minimal essential medium (MEM). Murine fibroblast L929 (Sigma-Aldrich, Merck Group, Headquarters, Darmstadt, Germany; the European Collection of Authenticated Cell Cultures—ECACC) cells were grown in DMEM. […] All media were supplemented with 10% FBS and 100 µg/mL of penicillin–streptomycin.
(§3) All compounds were dissolved in DMSO and the reference drugs were dissolved in physiological saline to concentrations of 10 mM. Concentrations from 1 to 500 μM in the media recommended for the cell lines were prepared for the tests.
(§4) All of the synthesized derivatives were evaluated via the MTT assay. All cell lines were seeded into 96-well plates at a density of 10,000 cells per well. To allow the cells to adhere to the surface of the plates, they were incubated overnight before the application of the test compounds. […] The tests were performed for concentrations of 1, 5, 10, 25, 50, 100, 250, and 500 μM. The solutions of the test compounds were removed from the culture on the 96-well plates. […] The supernatant was then removed. The violet crystal was dissolved in isopropanol for 30 min by shaking. Absorbance was measured at 570 nm.
(§5) Biological assays were performed in three independent replicates, and each replicate used four samples. Three repetitions were made for the ELISA determinations. For the assessment of cytotoxicity, mathematical models were developed using the GraphPad PRISM software, based on which CC50 was determined. The values of CC50 were estimated based on nonlinear regression using the dependence of the biological effect on the molar concentrations of the compounds (four-parameter logistic model with Hill slope).
Background: Tetrazolium dyes change colour on reduction, which living cells bring about.

The nature of data set [2]: MTT viability assay, L929. The format is cell-based, murine. To be noted: mouse, L929 fibroblasts, tested 1–500 µM. How it is done:
as §1, §2, §3, §4, §5

In data set [3] the test system is breast adenocarcinoma (MCF7). Kind of data set: MTT viability assay, MCF7. The format is cell-based, human. Particulars: for SI (selectivity index): CC50 NHDF / CC50 MCF7; for CC50: Homo sapiens, MCF7, MTT, tested 1–500 µM. As for the experimental part:
as §1, §2, §3, §4, §5

For data set [4], the system named is primary colon adenocarcinoma (HT29). The experiment in a line: MTT viability assay, HT29. It is filed as cell-based, human. To be noted: for SI (selectivity index): CC50 NHDF / CC50 HT29; for CC50: tested 1–500 µM. How it is done:
as §1, §2, §3, §4, §5

Data set [5] relates to lung adenocarcinoma (A549). Kind of data set: MTT viability assay, A549. To be noted: for SI (selectivity index): CC50 NHDF / CC50 A549; for CC50: Homo sapiens. It is filed as cell-based, human. As for the experimental part:
as §1, §2, §3, §4, §5

For data set [6], the system named is metastatic colon adenocarcinoma (LoVo). The experiment in a line: MTT viability assay, LoVo. It is filed as cell-based, human. Particulars: for SI (selectivity index): CC50 NHDF / CC50 LoVo; for CC50: Homo sapiens, LoVo, MTT, tested 1–500 µM. As for the experimental part: as §1, §2, §3, §4, §5
Data set [7] has as its system HT29 primary colon adenocarcinoma cells. The experiment in a line: Detection of apoptosis (Annexin V FITC / propidium iodide). The format is cell-based, human. Details: unit not given here. To be noted: 24 h. As for the experimental part: as §1, with “All cell lines were grown in 5% CO2 at 95% humidity and 37 °C, with both morphology and confluence assessed twice per week. When” for “When”
HT29 primary colon adenocarcinoma cells were grown in 96-well plates for 24 h. The 5 selected derivatives were added at concentrations of 1, 2, 5, and 10 µM, and then incubated for 24 h. The mixture of Annexin V conjugated with fluorescein and propidium iodide in PBS with Mg^2+ and Ca^2+ ions (Thermo Fisher Scientific, Waltham, MA, USA) was then applied. The incubation lasted 20 min at 37 °C. Pictures were taken using a fluorescence microscope. Thirteen images were taken from each well using an EVOS FL fluorescence microscope, with three replications for each compound. The open ImageJ space was used to analyze the number of cells. The Thermo Fisher Dead Cell Apoptosis Kit with Annexin V FITC and Propidium Iodide (PI) detects phosphatidylserine extrusion in apoptotic cells using Annexin V conjugated with a green fluorescent FITC dye and dead cells stained by PI with red fluorescence.

The test system of a further data set is HT29 cells. The experiment in a line: Migration (scratch) assay. It is filed as cell-based, human. To be noted: control T 155558.2, control T0 544366.45. How it is done:
The scratch test was performed to verify that the tested compound 3g could inhibit the formation of metastases by the HT29 cell line. The seeded HT29 cells were incubated until they formed a monolayer over the entire surface of the well. Then, a scratch test was performed by making a scratch in the monolayer and measuring its width—that is, To, amounting to 544,366.45 μm^2. Freshly prepared compounds were added to the HT29 cells at concentrations of 10, 25, 50, and 100 μM. Breeding plates were incubated for 24 h. The next day, scratch width was measured again using the ImageJ open-source platform. […] The lowest cellular overgrowth of HT29 culture occurred at the concentration of 100 μM for the compound. Compound 3g inhibited the migration of HT29 cells more strongly than the reference drugs, showing that it has the potential to inhibit metastasis. The width of the scratch after 24 h when no compound was applied to the cells was used as a control (T = 155,558.2 μm^2).
as §1, with “All cell lines were grown in 5% CO2 at 95% humidity and 37 °C, with both morphology and confluence assessed twice per week. When” for “When”
After seeding, HT29 cells were incubated until they formed a monolayer over the entire surface of the well. A scratch was made on the surface overgrown with cells, and then photomicrographs of the scratch were taken using the EVOS FL microscope. The freshly prepared compound 3g and the reference drugs were added at concentrations of 10, 25, 50, and 100 µM. Then, they were incubated for 24 h, and micrographs were performed at that time using the EVOS FL microscope. The scratch width was measured using the ImageJ open-source platform. The measurement of scratch width was also performed after 24 h without adding compounds.

Consider `CCCNc1ncnc2oc(-c3c(C)noc3N)nc12` [Compound 3c, 2-(5-Amino-3-methylisoxazol-4-yl)-7-N-propylaminooxazolo[5,4-d]pyrimidine], for which the melting point is 220 to 221 °C (dec.). Besides, half-maximal cytotoxicity in data set [1] (CC50) was put at 172 ± 14.5 µM. The CC50 in data set [2] was determined as 90.6 ± 8.75 µM. In data set [3], the “SI (selectivity index)” value was found to be 0.862 and the CC50 was determined as 199 ± 16.1 µM. For the same molecule, the “SI (selectivity index)” value in data set [4] is reported as 0.766. The CC50 in [4] (Homo sapiens, HT-29, HT29, MTT) turned out to be 224 ± 23.1 µM. In [5] (A549, MTT, tested 1–500 µM), the “CC50 ± SD” value is “no activity”.
Turning to `CCCCCNc1ncnc2oc(-c3c(C)noc3N)nc12` [Compound 3e, 2-(5-Amino-3-methylisoxazol-4-yl)-7-N-pentylaminooxazolo[5,4-d]pyrimidine], the “SI (selectivity index)” value was 0.702 in [6], 0.804 in data set [3], 0.963 in data set [4] and 0.999 in [5]. The CC50 in data set [6] is 178 ± 6.65 µM; in [1] it was 125 ± 11.5 µM; in data set [2], 89.2 ± 6.04 µM; in [3], 155 ± 15.5 µM; in data set [4] (Homo sapiens, HT-29, HT29, MTT), 129 ± 10 µM; in [5] (A549, MTT, tested 1–500 µM) it was 125 ± 12.1 µM. Also, the apoptosis mean in data set [7] (1 μM) turned out to be 6.20; in [7] (2 μM) it was 4.33; in data set [7] (5 μM), 5.40; in data set [7] (10 μM) it was 4.05. Besides, the late apoptosis mean is 11.11 in data set [7] (1 μM), 12.44 in data set [7] (2 μM), 18.31 in data set [7] (5 μM) and 22.59 in [7] (10 μM). Also, the necrosis mean turned out to be 4.53 in data set [7] (1 μM), 9.43 in data set [7] (2 μM), 10.22 in data set [7] (5 μM) and 20.74 in data set [7] (10 μM). Besides, the “percent live (viable) cells” value in data set [7] (1 μM) was found to be 78.17; in data set [7] (2 μM) it was 73.80; in data set [7] (5 μM), 66.07; in data set [7] (10 μM), 52.63.
As to `Cc1noc(N)c1-c1nc2c(NCCN(C)C)ncnc2o1` [Compound 3f, 2-(5-Amino-3-methylisoxazol-4-yl)-7-N-[2-(N,N-dimethylamino)ethyl]aminooxazolo[5,4-d]pyrimidine], the “SI (selectivity index)” value turned out to be 0.729 in data set [6], 0.881 in [3], 1.124 in data set [4] and 1.161 in [5]. In addition, the CC50 in data set [6] is 235 ± 13 µM; in [1], 172 ± 20.7 µM; in [2], 207 ± 16.5 µM; in data set [3], 195 ± 12 µM; in [4] (Homo sapiens, HT-29, HT29, MTT) it was 153 ± 15 µM; in data set [5] (A549, MTT, tested 1–500 µM), 148 ± 13.8 µM. The apoptosis mean is on record as 7.07 in data set [7] (1 μM), 3.08 in [7] (2 μM), 6.76 in [7] (5 μM) and 18.64 in data set [7] (10 μM). The late apoptosis mean in data set [7] (1 μM) amounted to 3.15; in [7] (2 μM), 7.34; in data set [7] (5 μM), 12.74; in data set [7] (10 μM), 6.51. Moreover, the necrosis mean in data set [7] (1 μM) is on record as 0.16; in [7] (2 μM), 5.76; in [7] (5 μM), 5.73; in [7] (10 μM) it was 2.78. Further, the “percent live (viable) cells” value in [7] (1 μM) is 89.62; in data set [7] (2 μM) it was 83.82; in [7] (5 μM), 74.77; in [7] (10 μM), 72.06.
Regarding `O=c1[nH]cc(F)c(=O)[nH]1` [Compound 5-FU, 5-fluorouracil, reference compound], the “SI (selectivity index)” value in [6] was 0.282; in data set [3], 0.094; in data set [4] it was 0.053; in data set [5], 0.076. For the same molecule, the apoptosis mean in [7] (1 μM) came out at 7.92; in data set [7] (2 μM) it was 10.65; in data set [7] (5 μM), 10.75; in data set [7] (10 μM), 3.81. Also, the late apoptosis mean in data set [7] (1 μM) is 31.72; in data set [7] (2 μM), 28.91; in data set [7] (5 μM), 33.06; in data set [7] (10 μM), 16.02. Also, the necrosis mean amounted to 10.48 in [7] (1 μM), 8.86 in [7] (2 μM), 8.39 in [7] (5 μM) and 34.82 in [7] (10 μM). Besides, the “percent live (viable) cells” value in data set [7] (1 μM) was 59.77; in data set [7] (2 μM), 63.94; in data set [7] (5 μM), 60.16; in data set [7] (10 μM), 55.23. In addition, the CC50 in data set [1] came out at 20.4 ± 2.97 µM; in data set [2], 38.1 ± 7.13 µM; in data set [3] it was 217 ± 20 µM; in data set [4] (HT29, MTT) it was 381 ± 25.5 µM; in data set [4] (Homo sapiens, HT-29, HT29, MTT) it was 381 µM; in data set [5] (A549, MTT, tested 1–500 µM), 269 ± 17.2 µM. For the same molecule, the “scratch width after 24 h, mean” value turned out to be 155098.248 μm^2 in the data set on HT29 cells (10 μM), 192391.405 μm^2 in the data set with HT29 cells (25 μM), 198312.887 μm^2 with HT29 cells (50 μM) and 282974.4 μm^2 with HT29 cells (100 μM).

The term CC50 denotes the concentration at which the toxic effect on the cells reaches its halfway point. By melting point is commonly meant the temperature, or range, at which the solid turns liquid.
